What all share (assay type): functional, cell-based
Assay [1] concerns the target T1, Taste receptor type 2 member 9 (Homo sapiens) (UniProt Q9NYW1).
T1 sequence (whole entry): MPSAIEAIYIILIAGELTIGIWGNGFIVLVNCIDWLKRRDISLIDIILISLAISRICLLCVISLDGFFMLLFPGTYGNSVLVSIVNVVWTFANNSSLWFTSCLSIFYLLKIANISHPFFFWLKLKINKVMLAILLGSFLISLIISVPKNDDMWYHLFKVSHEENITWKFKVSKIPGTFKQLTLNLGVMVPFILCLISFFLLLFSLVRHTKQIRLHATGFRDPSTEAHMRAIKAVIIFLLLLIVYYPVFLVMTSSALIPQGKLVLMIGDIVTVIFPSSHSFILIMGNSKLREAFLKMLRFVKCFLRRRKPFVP
Briefly: Antagonist activity at recombinant human N-terminal rat ST3 receptor-fused TAS2R9 expressed in HEK293T cells co-expressing Galpha16gust44 assessed as inhibition of ofloxacin-induced increase in intracellular calcium level at 100 uM by FLIPR assay. A general note: Calcium assays in cells follow changes in intracellular calcium, usually with a dye or a luminescent sensor.

Assay [2] has as its target T2, Taste receptor type 2 member 8 (Homo sapiens) (UniProt Q9NYW2).
T2 sequence (whole entry): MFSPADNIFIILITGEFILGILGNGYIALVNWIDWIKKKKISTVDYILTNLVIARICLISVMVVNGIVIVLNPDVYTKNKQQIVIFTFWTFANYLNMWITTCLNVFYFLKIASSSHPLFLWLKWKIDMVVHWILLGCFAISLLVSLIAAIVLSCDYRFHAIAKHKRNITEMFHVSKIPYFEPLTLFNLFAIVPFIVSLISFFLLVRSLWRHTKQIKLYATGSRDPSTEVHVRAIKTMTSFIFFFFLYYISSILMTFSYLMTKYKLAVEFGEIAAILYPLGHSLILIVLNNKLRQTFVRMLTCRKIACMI
Briefly: Antagonist activity at recombinant human N-terminal rat ST3 receptor-fused TAS2R8 expressed in HEK293T cells co-expressing Galpha16gust44 assessed as inhibition of chloramphenicol-induced increase in intracellular calcium level at 100 uM by FLIPR assay.

Assay [3] deals with T3, Taste receptor type 2 member 31 (Homo sapiens) (UniProt P59538).
T3 sequence (whole entry): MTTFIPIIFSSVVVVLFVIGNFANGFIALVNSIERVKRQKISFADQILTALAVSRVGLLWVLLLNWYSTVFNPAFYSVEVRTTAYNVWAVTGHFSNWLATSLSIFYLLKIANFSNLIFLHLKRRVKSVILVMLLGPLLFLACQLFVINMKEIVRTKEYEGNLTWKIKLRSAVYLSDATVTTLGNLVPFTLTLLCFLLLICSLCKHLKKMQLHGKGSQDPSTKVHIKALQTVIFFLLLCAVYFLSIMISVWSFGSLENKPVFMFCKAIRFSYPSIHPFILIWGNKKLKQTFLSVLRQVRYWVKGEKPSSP
Briefly: Antagonist activity at recombinant human N-terminal rat ST3 receptor-fused TAS2R44 expressed in HEK293T cells co-expressing Galpha16gust44 assessed as inhibition of aristolochic acid-induced intracellular calcium level at 100 uM by FLIPR assay.

Assay [4] deals with T4, Taste receptor type 2 member 10 (Homo sapiens) (UniProt Q9NYW0).
T4 sequence (whole entry): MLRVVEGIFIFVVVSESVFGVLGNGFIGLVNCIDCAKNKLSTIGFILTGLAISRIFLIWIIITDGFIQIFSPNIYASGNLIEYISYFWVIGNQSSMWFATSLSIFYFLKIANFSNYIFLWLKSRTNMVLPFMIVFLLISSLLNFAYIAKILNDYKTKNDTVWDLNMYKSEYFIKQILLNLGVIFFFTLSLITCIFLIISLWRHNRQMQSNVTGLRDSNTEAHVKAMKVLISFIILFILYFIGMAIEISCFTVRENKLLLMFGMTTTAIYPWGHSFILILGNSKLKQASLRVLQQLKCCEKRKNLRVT
Briefly: Antagonist activity at recombinant human N-terminal rat ST3 receptor-fused TAS2R10 expressed in HEK293T cells co-expressing Galpha16gust44 assessed as inhibition of strychnine-induced increase in intracellular calcium level at 100 uM by FLIPR assay.

In assay [5] the target is T5, Taste receptor type 2 member 39 (Homo sapiens) (UniProt P59534).
T5 sequence (whole entry): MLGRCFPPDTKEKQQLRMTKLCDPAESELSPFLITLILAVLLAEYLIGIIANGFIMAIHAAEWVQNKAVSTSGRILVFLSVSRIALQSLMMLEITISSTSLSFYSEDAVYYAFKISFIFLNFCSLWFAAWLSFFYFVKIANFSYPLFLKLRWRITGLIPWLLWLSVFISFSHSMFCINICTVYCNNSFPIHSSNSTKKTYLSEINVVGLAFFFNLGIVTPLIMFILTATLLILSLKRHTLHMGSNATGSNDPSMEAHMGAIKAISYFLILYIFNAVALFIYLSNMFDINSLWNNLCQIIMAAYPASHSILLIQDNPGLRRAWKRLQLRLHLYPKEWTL
Nature of the assay: Antagonist activity at recombinant human N-terminal rat ST3 receptor-fused TAS2R39 expressed in HEK293T cells co-expressing Galpha16gust44 assessed as inhibition of epigallocatechin galiate-induced increase in intracellular calcium level at 100 uM by FLIPR assay.

The target of assay [6] is T6, Taste receptor type 2 member 43 (Homo sapiens) (UniProt P59537).
T6 sequence (whole entry): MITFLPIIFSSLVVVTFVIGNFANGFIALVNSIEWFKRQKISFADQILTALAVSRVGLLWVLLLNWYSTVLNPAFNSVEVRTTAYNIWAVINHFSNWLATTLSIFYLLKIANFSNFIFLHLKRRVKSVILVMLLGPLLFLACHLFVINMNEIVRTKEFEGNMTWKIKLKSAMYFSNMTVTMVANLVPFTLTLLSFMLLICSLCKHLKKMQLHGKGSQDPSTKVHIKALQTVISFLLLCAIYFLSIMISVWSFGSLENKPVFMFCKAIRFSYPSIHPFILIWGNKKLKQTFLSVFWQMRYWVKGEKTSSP
Briefly: Antagonist activity at recombinant human N-terminal rat ST3 receptor-fused TAS2R43 expressed in HEK293T cells co-expressing Galpha16gust44 assessed as inhibition of aristolochic acid-induced intracellular calcium level at 100 uM by FLIPR assay.

The target in assay [7] is T7, Taste receptor type 2 member 16 (Homo sapiens) (UniProt Q9NYV7).
T7 sequence (whole entry): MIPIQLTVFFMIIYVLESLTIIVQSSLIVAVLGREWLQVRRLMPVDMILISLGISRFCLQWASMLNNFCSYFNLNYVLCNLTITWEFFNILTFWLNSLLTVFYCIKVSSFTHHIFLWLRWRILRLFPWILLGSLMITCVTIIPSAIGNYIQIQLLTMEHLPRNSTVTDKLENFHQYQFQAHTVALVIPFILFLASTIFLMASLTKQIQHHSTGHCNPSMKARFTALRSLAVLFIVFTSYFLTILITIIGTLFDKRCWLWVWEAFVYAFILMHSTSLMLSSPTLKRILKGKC
Briefly: Antagonist activity at recombinant human N-terminal rat ST3 receptor-fused TAS2R16 expressed in HEK293T cells co-expressing Galpha16gust44 assessed as inhibition of D-salicin-induced increase in intracellular calcium level at 100 uM by FLIPR assay.

Calls of active or inactive are those of the source. No cut-off for these calls is given here.

Consider `C/C1=C\C[C@H](O)/C(C)=C/[C@H]2OC(=O)[C@@H](C)[C@@H]2CC1`, for which the inhibition result in assay [1], in assay [2], in assay [3], in assay [4], in assay [5] and in assay [7] was “inactive” in each case. Further, the inhibition result in assay [6] is “Active”.
For the compound `C/C1=C\C[C@H](O)[C@@H](C)C[C@H]2OC(=O)[C@@H](C)[C@@H]2CC1`, the inhibition entry in assay [1], in assay [2], in assay [4], in assay [5] and in assay [7] was “inactive” in each case. Besides, the inhibition entry in assay [3] and in assay [6] was “Active” throughout.

(Values after ChEMBL document CHEMBL4418912, “Methods of identifying antagonists of the hTAS2R46 bitter taste receptor” (2014).)
